In test [1] the test system is rats made osteoporotic by ovariectomy. In words: Restoration of bone mass (femur ash) in oophorectomized rats. The following applies: for Total Femur Ash (mg ± SEM) / Ash (% ± SEM): oophorectomized rats, 325 pmol/day for 20 days by Alzet osmotic minipump; for Ash (% ± SEM): femur; for restoration of bone mass: result in words, previously tested, compared with the compound of the present study. Format: in vivo, rat. An excerpt: At 13 weeks, the animals were either sham-operated or oophorectomized. They continued on the same diet for an additional 16 weeks. Ouring the last 20 days, the animals received the indicated dose of either 1α-hydroxyvitamin D2 or 24-epi-1α-hydroxyvitamin D2, in propylene glycol, delivered each day by Alzet osmotic minipump for a period of 20 days. The animals were killed and their femurs were used to determine total bone ash and percent ash. There were 6 animals in each group and the data are expressed as average ± standard error of the mean. Oophorectomy results in a lack of estrogen reminiscent of the menopausal state.

For test [2], the system named is vitamin D-deficient rat. The following applies: cited from earlier work; for Ca Transport S/M Ratio: 20 h prior to sacrifice, vitamin D-free, low calcium diet.
Test [3] concerns vitamin D-deficient rat. The following applies: cited from earlier work; for Bone Mobilization Serum Ca: 20 h prior to sacrifice, vitamin D-free, low calcium diet; for activity in mobilizing calcium from bone: result in words, animals on a low calcium diet.
Test [4] relates to human leukemia cells (HL-60 cells). Particulars: 4-day trial period, cited from earlier work.
For test [5] the test system is unchanged. Particulars: 4-day trial period, cited from earlier work. This is another data set of the same source.
Test [6] shares this test system. The following applies: cited from earlier work.
For test [7] the test system is unchanged. As to the kind of experiment: HL-60 cell differentiation, text summary over both NBT-reduction and phagocytosis assays. The following applies: HL-60 cell differentiation activity. It is filed as cell-based. On the procedure:
The assays were conducted as described by Ostrem et al (J. Biol. Chem. 262, 14164-14171, 1987), and by DeLuca et al (U. S. Patent 4,717,721). […] Even at doses as low as 10^-8M, this compound produced approximately 64-67% differentiation in the 4-day trial period in both the NBT-reduction and the phagocytosis assay. […] Thus, 1α-hydroxy-24-epi-vitamin D2 has little or no activity in promoting differentiation of promyelocytes to monocytes.

Where two headings read alike, the source gives them in different places. Marks after values point to notes of the source that are not given here. A value given as a limit tells only on which side of the number the result lay.

`C=C1/C(=C\C=C2/CCC[C@]3(C)[C@@H]([C@H](C)/C=C/[C@@H](C)C(C)C)CC[C@@H]23)C[C@@H](O)C[C@@H]1O` [1α-Hydroxy-24-epi-vitamin D2, 24-epi-1α-hydroxyvitamin D2]: the “Total Femur Ash (mg ± SEM)” value in test [1] is given as 400 mg; in test [1] (listed as 24-epi-1α-OH-D2), 400 ± 16.4^d mg. Moreover, the “Ash (% ± SEM)” value in test [1] came to 60.5 ± 0.5%. Besides, the “Ca Transport S/M Ratio” value in test [2] (325 pmol) is listed as 4.3 ± 0.42^a; in test [2] (650 pmol), 4.4 ± 0.70^a. Moreover, the “activity in stimulating intestinal calcium transport” value in test [2] (result in words, data of Table 1) is “high activity”. In addition, the “Bone Mobilization Serum Ca” value in test [3] (325 pmol) is given as 3.9 ± 0.39^b mg %; in test [3] (650 pmol), 4.1 ± 0.23^b mg %. Further, the “activity in mobilizing calcium from bone” value in test [3] is reported as “no activity”. Moreover, the “% Differentiation NBT Reduction” value is given as 22 ± 2% in test [4] (1 x 10^-7 M), 4 ± 2% in test [4] (1 x 10^-8 M), 6 ± 2% in test [4] (2 x 10^-8 M) and 14 ± 2% in test [4] (5 x 10^-8 M). In addition, the “% Differentiation Phagocytosis” value is reported as 16 ± 2% in test [5] (1 x 10^-7 M), 4 ± 2% in test [5] (1 x 10^-8 M), 6 ± 3% in test [5] (2 x 10^-8 M) and 9 ± 1% in test [5] (5 x 10^-8 M). The differentiation result in test [6] (1-2 x 10^-8M) is given as “does not elicit a significant differentiation response”; in test [6] (10^-7M) it was 16-20%.

Regarding `C=C1/C(=C\C=C2/CCC[C@]3(C)[C@@H]([C@H](C)/C=C/[C@@H](C)C(C)(C)O)CC[C@@H]23)C[C@@H](O)C[C@@H]1O` [1α,25-Dihydroxy-24-epi-vitamin D2, 1α,25-dihydroxy-24-epi-vitamin D2], in test [7], the “times less active than the 1α,25-dihydroxyvitamin D3 standard” value is on record as “about 5”. The “% Differentiation NBT Reduction” value is 80 ± 3% in test [4] (1 x 10^-7 M), 39 ± 3% in test [4] (1 x 10^-8 M), 48 ± 3% in test [4] (2 x 10^-8 M) and 64 ± 3% in test [4] (5 x 10^-8 M). In addition, the “% Differentiation Phagocytosis” value in test [5] (1 x 10^-7 M) is reported as 81 ± 3%; in test [5] (1 x 10^-8 M), 40 ± 3%; in test [5] (2 x 10^-8 M), 49 ± 2%; in test [5] (5 x 10^-8 M) it was 62 ± 3%. Moreover, the values for the differentiation in test [6] (1-2 x 10^-8M), in test [6] (5 x 10^-8M) and in test [6] (10^-7M) were 40-50%, more than 60% and 80%, respectively.

Consider `C=C1/C(=C\C=C2/CCC[C@]3(C)[C@@H]([C@H](C)/C=C/[C@H](C)C(C)C)CC[C@@H]23)C[C@@H](O)C[C@@H]1O` [1α-Hydroxy-vitamin D2, 1α-hydroxyvitamin D2], for which, in test [1], the “Total Femur Ash (mg ± SEM)” value is listed as 377 mg and the “Ash (% ± SEM)” value turned out to be 58.6 ± 0.55%. Also, the “Total Femur Ash (mg ± SEM)” value in test [1] (listed as 1α-OH-D2) was 377 ± 15.2^c mg. In addition, in test [2] (325 pmol), the “Ca Transport S/M Ratio” value is 5.4 ± 0.37^a. In addition, in test [3] (325 pmol), the “Bone Mobilization Serum Ca” value is 5.3 ± 0.15^a mg %. In addition, the “activity in mobilizing calcium from bone” value in test [3] is given as “strongly active”.

Regarding `C=C1/C(=C\C=C2/CCC[C@]3(C)[C@@H]([C@H](C)CCCC(C)(C)O)CC[C@@H]23)C[C@@H](O)C[C@@H]1O` [1α,25-Dihydroxy-vitamin D3, 1α,25-dihydroxyvitamin D3], the “restoration of bone mass” value in test [1] is recorded as “restored some bone mass”. The figures for the “% Differentiation NBT Reduction” value in test [4] (1 x 10^-7 M) and in test [4] (1 x 10^-8 M) were 87 ± 2% and 64 ± 2%, respectively. Also, the “% Differentiation Phagocytosis” value is listed as 89 ± 3% in test [5] (1 x 10^-7 M) and 67 ± 3% in test [5] (1 x 10^-8 M). Besides, the differentiation in test [6] (10^-8M, 4-day trial period, both NBT-reduction and phagocytosis assay) is recorded as 64-67%.

With `C=C1/C(=C\C=C2/CCC[C@]3(C)[C@@H]([C@H](C)CCCC(C)C)CC[C@@H]23)C[C@@H](O)C[C@@H]1O` [1α-hydroxyvitamin D3], in test [1], the “restoration of bone mass” value was “restored some bone mass”.

(Values after EP0634173B1, “24-epi-1-alpha-hydroxyvitamin D2 for treating osteoporosis” (WISCONSIN ALUMNI RESEARCH FOUNDATION, priority 1993, dated 1995).)
